This note sets out measurements from patent US20220315578A1, “BRD9 BIFUNCTIONAL DEGRADERS AND THEIR METHODS OF USE” (NOVARTIS AG, priority 2019, published 2022).

The target in the assay is T1, BRD9-GFP (Homo sapiens, UniProt Q9H8M2).
T1 construct: CHYSEL (2A cis-acting hydrolase element) remnant after GFP; mCherry is split off as a separate protein (C); expressed in transfected cells; host or cells: HEK293A cells (Invitrogen R70507), lentiviral transduction with pLenti6-BRD9-GFP-CHYSEL-mCherry, blasticidin selection
T1 sequence (Q9H8M2 1-597): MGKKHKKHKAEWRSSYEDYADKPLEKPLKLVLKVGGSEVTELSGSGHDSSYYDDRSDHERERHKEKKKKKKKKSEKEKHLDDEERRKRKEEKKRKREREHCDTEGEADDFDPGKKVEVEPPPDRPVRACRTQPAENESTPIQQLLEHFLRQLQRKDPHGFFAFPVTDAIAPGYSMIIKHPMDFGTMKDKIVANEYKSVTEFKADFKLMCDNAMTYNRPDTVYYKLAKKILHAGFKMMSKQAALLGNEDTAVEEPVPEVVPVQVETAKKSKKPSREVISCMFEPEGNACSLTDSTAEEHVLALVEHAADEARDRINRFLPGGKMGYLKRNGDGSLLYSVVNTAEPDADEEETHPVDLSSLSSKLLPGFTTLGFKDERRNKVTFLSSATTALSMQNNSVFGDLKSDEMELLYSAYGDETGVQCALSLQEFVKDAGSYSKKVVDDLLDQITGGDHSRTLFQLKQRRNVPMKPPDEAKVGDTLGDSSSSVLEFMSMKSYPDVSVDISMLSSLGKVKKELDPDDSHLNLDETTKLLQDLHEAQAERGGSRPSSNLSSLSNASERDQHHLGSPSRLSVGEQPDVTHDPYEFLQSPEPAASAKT
Nature of the assay: BRD9-GFP protein abundance flow cytometry assay in HEK293A cells. The assay is classed as cell-based. Conditions: HEK293A-BRD9-GFP-CHYSEL-mCherry cells; for BRD9 Deg Amax %: 24 h, % protein remaining at the concentration at which maximum degradation is seen; for DC50: 24 h at 37° C., 10-point 1:3 dilution, concentration at which 50% maximal degradation was observed. As for the experimental part: Compounds of the invention were tested in the following cellular assays. The terms in Table 1 are defined as follows: DC50 refers to the concentration at which 50% maximal degradation was observed; deg Amax is the extent of degradation and the value refers to the % protein remaining at the concentration at which maximum degradation is seen.
BRD9-GFP protein abundance flow cytometry assay in HEK293A cells: Degradation of BRD9 was measured in HEK293A cells expressing BRD9-GFP and mCherry from a stably integrated second generation bicistronic BRD9-GFP-CHYSELmCherry construct. Reduction of the GFP signal measured by flow cytometry served as readout for BRD9 degradation after degrader treatment.
The bicistronic BRD9-GFP-CHYSEL-mCherry construct is based on a pLenti6-DEST vector backbone where a GFP-CHYSEL-mCherry cassette was synthesized and inserted downstream of the DEST cassette by Gibson assembly resulting in the new gateway compatible vector pLenti6-DEST-GFP-CHYSEL-mCherry to allow Gateway cloning with pENTR221-BRD9 (w/o ATG) to obtain the final sensor construct pLenti6-BRD9-GFP-CHYSEL-mCherry.
HEK293 Å-BRD9-GFP-CHYSEL-mCherry sensor cells were generated by lentiviral vector transduction using the pLenti6-BRD9-GFP-CHYSEL-mCherry sensor construct described before. […] The mix was incubated for another 20 min at RT and then added to 1 ml of a freshly prepared suspension of HEK293FT cells in a well of a 6-well plate (concentration 1.2×10^6 cells/ml). 1 day after transfection, the medium was replaced with 1.5 ml of complete growth medium (DMEM high Glucose+10% FCS+1% L-Glutamine+1% NEAA+1% NaPyr.). 48 h post transfection supernatant containing viral transducing particles was collected and frozen at −80° C. […] Infection was performed with […] of collected supernatant containing viral transducing particles in 1 ml medium including 8 μg/ml polybrene. 24 h post infection, stably transfected cells were selected with blasticidin at a concentration of 8 μg/ml.
Stable HEK293 Å-BRD9-GFP-CHYSEL-mCherry cells were maintained in complete growth medium (DMEM high Glucose+10% FCS+1% L-Glutamine+1% NEAA+1% NaPyr.) with passaging performed twice per week. On Day 0, HEK293 Å-BRD9-GFP-CHYSEL-mCherry cells were seeded at 10,000 cells/well in a 96-well microtiter plate in […] complete medium. On Day 1, cells were treated in duplicate with 10-point 1:3 dilution series of compound using the HP D300 Digital Dispenser (Tecan). DMSO concentrations were normalized across the plate to 0.1%. On Day 2, after 24 h of incubation at 37° C., treatment media was discarded, cells rinsed with 100 ul/well PBS and then detached using 40 ul trypsin/well for 5 min. Trypsin was neutralized with 100 ul/well PBS+20% FCS). Flow cytometry was performed on the samples using the Beckman Coulter CytoFLEX flow cytometer. Cell identification was then performed using forward (FSC) vs. side scatter (SSC) plots. Single cell discrimination is performed using FSC-Width (FSC-W) vs. FSC-Height (FSC-H) plots. Median GFP/mCherry ratio values for 5,000 single cells are used to determine BRD9 levels. Median GFP/mCherry ratio values from HEK293 Å-mCherry are used as a background signal and thus defining 0% BRD9 signal. Median GFP/mCherry ratio values from DMSO treated HEK293 Å-BRD9-GFP-CHYSEL-mCherry are used to define 100% BRD9 signal for subsequent DC50 curves (concentration at 50% BRD9 degradation). Concentration response curves plotting relative reduction of the GFP/mCherry ratio signal (measured by flow cytometry) versus 10 compound concentrations (starting concentration […], 3 fold dilution steps) of the compounds allowed generation of DC50 values. Data is shown in Tables 2 and 3, in which, DC50 refers to the concentration at which 50% maximal degradation was observed; deg Amax is the extent of degradation and the value refers to the % protein remaining at the concentration at which maximum degradation is seen.
For orientation: In flow cytometry, cells or beads pass a laser one at a time.

What is called DC50 is the concentration giving 50% degradation. Low values mean a more potent degrader, high ones a less potent degrader. As to `COc1cc(-c2cc(C)c(=O)n(C)c2)c(OC)cc1CN1CCC(OC2CCN(C(=O)c3cccc(N4CCC(=O)NC4=O)c3)CC2)CC1` [Compound A16, 1-(3-(4-((1-(4-(1,5-Dimethyl-6-oxo-1,6-dihydropyridin-3-yl)-2,5-dimethoxybenzyl)piperidin-4-yl)oxy)piperidine-1-carbonyl)phenyl)dihydropyrimidine-2,4(1H,3H)-dione], the “BRD9 Deg Amax %” value is listed as 6.37% and the DC50 came out at 0.032 µM.

For `COc1cc(-c2cc(C)c(=O)n(C)c2)c(OC)cc1CN1CCC(OC2CCN(C(=O)COc3ccc(N4CCC(=O)NC4=O)cc3)CC2)CC1` [Compound A7, 1-(4-(2-(4-((1-(4-(1,5-Dimethyl-6-oxo-1,6-dihydropyridin-3-yl)-2,5-dimethoxybenzyl)piperidin-4-yl)oxy)piperidin-1-yl)-2-oxoethoxy)phenyl)dihydropyrimidine-2,4(1H,3H)-dione], the “BRD9 Deg Amax %” value is 21.30% and the DC50 was determined as 0.06 µM.

Regarding `COc1cc(-c2cn(C)c(=O)c3cnccc23)cc(OC)c1CN1CCC(OC2CCN(C(=O)c3cccc(N4CCC(=O)NC4=O)c3)CC2)CC1` [Compound A36, 1-(3-(4-((1-(2,6-Dimethoxy-4-(2-methyl-1-oxo-1,2-dihydro-2,7-naphthyridin-4-yl)benzyl)piperidin-4-yl)oxy)piperidine-1-carbonyl)phenyl)dihydropyrimidine-2,4(1H,3H)-dione], the “BRD9 Deg Amax %” value is 18.42% and half-maximal degradation (DC50) was put at 0.039 µM.

On to `COc1cc(-c2cn(C)c(=O)c3cnccc23)c(OC)cc1CN1CCC(OC2CCN(CCn3cccc(CN4CCC(=O)NC4=O)c3=O)CC2)CC1` [Compound C1, 1-((1-(2-(4-(1-(2,5-Dimethoxy-4-(2-methyl-1-oxo-1,2-dihydro-2,7-naphthyridin-4-yl)benzyl)piperidin-4-yloxy)piperidin-1-yl)ethyl)-2-oxo-1,2-dihydropyridin-3-yl)methyl)dihydropyrimidine-2,4(1H,3H)-dione], for which the “BRD9 Deg Amax %” value is 13.59% and the DC50 was 0.029 µM.

For `COc1cc(-c2cn(C)c(=O)c3cnccc23)c(OC)cc1CN1CCC(O[C@@H]2CCN(CCn3cccc(CN4CCC(=O)NC4=O)c3=O)C[C@H]2F)CC1` [Compound E2, 1-((1-(2-((3R,4R)-4-((1-(2,5-dimethoxy-4-(2-methyl-1-oxo-1,2-dihydro-2,7-naphthyridin-4-yl)benzyl)piperidin-4-yl)oxy)-3-fluoropiperidin-1-yl)ethyl)-2-oxo-1,2-dihydropyridin-3-yl)methyl)dihydropyrimidine-2,4(1H,3H)-dione], the “BRD9 Deg Amax %” value is reported as 12.45% and it took 0.035 µM to reach half-maximal degradation (DC50).

Turning to `Cn1cc(-c2ccc(CN3CCC(OC4CCN(CCn5cccc(CN6CCC(=O)NC6=O)c5=O)CC4)CC3)cc2)c2ccncc2c1=O` [Compound E37, 1-((1-(2-(4-((1-(4-(2-methyl-1-oxo-1,2-dihydro-2,7-naphthyridin-4-yl)benzyl)piperidin-4-yl)oxy)piperidin-1-yl)ethyl)-2-oxo-1,2-dihydropyridin-3-yl)methyl)dihydropyrimidine-2,4(1H,3H)-dione], the “BRD9 Deg Amax %” value came to 13.77% and the DC50 amounted to 0.009 µM.

For `CCCCn1cc(-c2cc(OC)c(OC3CCN(CC4CCN(C(=O)c5ccc(OC)c(N6CCC(=O)NC6=O)c5)CC4)CC3)c(OC)c2)c2ccncc2c1=O` [Compound B10, 1-(5-(4-((4-(4-(2-butyl-1-oxo-1,2-dihydro-2,7-naphthyridin-4-yl)-2,6-dimethoxyphenoxy)piperidin-1-yl)methyl)piperidine-1-carbonyl)-2-methoxyphenyl)dihydropyrimidine-2,4(1H,3H)-dione], the “BRD9 Deg Amax %” value is given as 16.55% and the 50% degradation concentration (DC50) was found to be 0.006 µM.

For the compound `COc1cc(-c2cn(C)c(=O)c3cnccc23)c(OC)cc1CCN1CCC(OC2CCN(C(=O)c3ccc(OC)c(N4CCC(=O)NC4=O)c3)CC2)CC1` [Compound A41, 1-(5-(4-((1-(2,5-Dimethoxy-4-(2-methyl-1-oxo-1,2-dihydro-2,7-naphthyridin-4-yl)phenethyl)piperidin-4-yl)oxy)piperidine-1-carbonyl)-2-methoxyphenyl)dihydropyrimidine-2,4(1H,3H)-dione], the “BRD9 Deg Amax %” value turned out to be 13.54% and it took 0.06 µM to reach half-maximal degradation (DC50).

Take `CCCCn1cc(-c2ccc(O[C@H]3CCN(CC4CCN(C(=O)c5ccc(OC)c(N6CCC(=O)NC6=O)c5)CC4)C[C@@H]3F)c(F)c2)c2ccncc2c1=O` [Compound E16, 1-(5-(4-(((3S,4S)-4-(4-(2-butyl-1-oxo-1,2-dihydro-2,7-naphthyridin-4-yl)-2-fluorophenoxy)-3-fluoropiperidin-1-yl)methyl)piperidine-1-carbonyl)-2-meth-oxyphenyl)dihydro-pyrimidine-2,4(1H,3H)-dione]: the “BRD9 Deg Amax %” value amounted to 16.58% and the DC50 stood at 0.001 µM.

Consider `CCCCn1cc(-c2ccc(CN3CCC(OC4CCN(C(=O)c5ccc(OC)c(N6CCC(=O)NC6=O)c5)CC4)CC3)cc2)c2ccncc2c1=O` [Compound E13, 1-(5-(4-((1-(4-(2-butyl-1-oxo-1,2-dihydro-2,7-naphthyridin-4-yl)benzyl)piperidin-4-yl)oxy)piperidine-1-carbonyl)-2-meth-oxyphenyl)dihydro-pyrimidine-2,4(1H,3H)-dione], for which the “BRD9 Deg Amax %” value is reported as 13.06% and the 50% degradation concentration (DC50) came out at 0.002 µM.

Take `COc1cc(-c2cn(C)c(=O)c3cnccc23)c(OC)cc1OC1CCN(CC2CCN(C(=O)c3ccc(OC)c(N4CCC(=O)NC4=O)c3)CC2)CC1` [Compound A20, 1-(5-(4-((4-(2,5-Dimethoxy-4-(2-methyl-1-oxo-1,2-dihydro-2,7-naphthyridin-4-yl)phenoxy)piperidin-1-yl)methyl)piperidine-1-carbonyl)-2-methoxyphenyl)dihydropyrimidine-2,4(1H,3H)-dione]: the “BRD9 Deg Amax %” value is on record as 9.75% and the DC50 was found to be 0.014 µM.

Regarding `CCCCn1cc(-c2ccc(OC3CCN(CC4CCN(C(=O)c5ccc(OC)c(N6CCC(=O)NC6=O)c5)CC4)CC3)c(OC)c2)c2ccncc2c1=O` [Compound B5, 1-(5-(4-((4-(4-(2-butyl-1-oxo-1,2-dihydro-2,7-naphthyridin-4-yl)-2-methoxyphenoxy)piperidin-1-yl)methyl)piperidine-1-carbonyl)-2-methoxyphenyl)dihydropyrimidine-2,4(1H,3H)-dione], the “BRD9 Deg Amax %” value stood at 13.14% and the 50% degradation concentration (DC50) was 0.004 µM.
